One molecule from article PMC12522199 (RSC Advances, 2025) can be followed below.

This assay concerns the target HamA (Burkholderia cenocepacia, UniProt A0A144VC93). Description: microscale thermophoresis. The class given is binding. A general note: MST reads how a fluorescent partner responds to local heating, with and without ligand.

As for `O=C(O)CCC(=O)C(=O)O` [2-oxoglutarate], binding was characterised by a dissociation constant (Kd) of 208 ± 1.42 µM.
